In ChEMBL document CHEMBL5385850, “Identification of novel aza-analogs of TN-16 as disrupters of microtubule dynamics through a multicomponent reaction” (Eur J Med Chem, 2023):
Activity calls are given as the source filed them. The rule behind the calls is not given here.

Assays:
SH-SY5Y [1] = assay: Cytotoxicity against human SH-SY5Y cells at 1 uM incubated for 72 hrs by MTT assay relative to control; format: functional
SH-SY5Y [2] = assay: Cytotoxicity against human SH-SY5Y cells incubated for 48 hrs by MTT assay; format: functional, cell-based
SH-SY5Y [3] = assay: Induction of cell cycle arrest in human SH-SY5Y cells assessed as accumulation of cells at G2/M phase at 1 uM measured after 16 hrs by PI staining based flow cytometry analysis; format: functional
SH-SY5Y [4] = assay: Upregulation of tubulin acetylation in human SH-SY5Y cells at 1 uM measured after 16 hrs by Western blot analysis; format: functional, cell-based
MDA-MB-231 = assay: Cytotoxicity against human MDA-MB-231 cells incubated for 48 hrs by MTT assay; format: functional, cell-based
MCF7 = assay: Cytotoxicity against human MCF7 cells incubated for 48 hrs by MTT assay; format: functional, cell-based
Tubulin (Homo sapiens) [5] = biological target: T1, Tubulin (Homo sapiens) (UniProt P68371+Q9H4B7+P0DPH7+P68366+Q13509+Q71U36+P04350+Q3ZCM7+P07437+P68363+Q9BQE3+Q6PEY2+Q13885+Q9BVA1+Q9BUF5); assay: Inhibition of tubulin polymerization in human SH-SY5Y cells assessed as decrease in depolymerized tubulin to polymerized tubulin ratio at 100 nM measured after 16 hrs by Western blot analysis; format: cell-based
HeLa = assay: Cytotoxicity against human HeLa cells incubated for 48 hrs by MTT assay; format: functional, cell-based
Tubulin (Homo sapiens) [6] = biological target: T1, Tubulin (Homo sapiens); assay: Inhibition of tubulin polymerization in human SH-SY5Y cells assessed as decrease in depolymerized tubulin to polymerized tubulin ratio at 1 uM measured after 16 hrs by Western blot analysis; format: cell-based
Tubulin (Homo sapiens) [7] = biological target: T1, Tubulin (Homo sapiens); assay: Inhibition of tubulin polymerization (unknown origin) measured every 60 secs for 1 hr by fluorescence based analysis; format: protein-complex assay; conditions: dose 1-10 µM
Tubulin (Homo sapiens) [8] = biological target: T1, Tubulin (Homo sapiens); assay: Inhibition of tubulin polymerization in human SH-SY5Y cells assessed as disappearance of tubulin network structure at 3 times EC50 measured after 16 hrs by immunofluorescence assay; format: cell-based
SH-SY5Y [9] = assay: Upregulation of tubulin acetylation in human SH-SY5Y cells at 200 nM by immunofluorescence assay; format: functional, cell-based
SH-SY5Y [10] = assay: Upregulation of tubulin acetylation in human SH-SY5Y cells at 70 to 350 nM measured after 16 hrs by Western blot analysis; format: functional, cell-based; conditions: dose 70-350 nM
Tubulin (Homo sapiens) [11] = biological target: T1, Tubulin (Homo sapiens); assay: Inhibition of tubulin polymerization (unknown origin) at 1 to 30 uM measured every 60 secs for 1 hr by fluorescence based analysis; format: protein-complex assay; conditions: dose 1-30 µM, time 60.0 sec
SH-SY5Y [12] = assay: Upregulation of tubulin acetylation in human SH-SY5Y cells at 300 nM by immunofluorescence assay; format: functional, cell-based
SH-SY5Y [13] = assay: Upregulation of tubulin acetylation in human SH-SY5Y cells at 100 to 1000 nM measured after 16 hrs by Western blot analysis; format: functional, cell-based; conditions: dose 100-1000 nM

In the case of `O=C1N[C@@H](Cc2ccccc2)C(=O)/C1=C/Nc1ccccc1`, the Activity (SH-SY5Y [1]) is reported as 70.3%.

`CN(/C=C1\C(=O)N[C@@H](Cc2ccccc2)C1=O)c1ccccc1` gave an Activity (SH-SY5Y [1]) of 112.4%.

For `C/C(Nc1cccc(Oc2ccccc2)c1)=C1/C(=O)NN(Cc2ccccc2)C1=O`, the EC50 (SH-SY5Y [2]) was 895 nM, the Activity (SH-SY5Y [3]) was “Active” and the Activity (SH-SY5Y [4]) was “Active”.

In the case of `C/C(Cc1ccccc1)=C1/C(=O)N[C@@H](Cc2ccccc2)C1=O`, the Activity (SH-SY5Y [1]) is reported as 100.7%.

Molecule `C/C(Nc1ccccc1)=C1/C(=O)NN(Cc2ccccc2)C1=O` has an Activity (SH-SY5Y [1]) of 36.2%.

`COc1ccc(/C=C\c2cc(OC)c(OC)c(OC)c2)cc1O` was tested, and the Activity (MDA-MB-231) was “inactive” and the Activity (MCF7) was “inactive”.

`C#CCCOc1cccc(N/C(C)=C2\C(=O)NN(Cc3ccccc3)C2=O)c1` was tested, and the EC50 (SH-SY5Y [2]) was 790 nM and the Activity (SH-SY5Y [4]) was “Active”.

With `CC(=O)O[C@H]1C(=O)[C@@]2(C)[C@H]([C@H](OC(=O)c3ccccc3)[C@]3(O)C[C@H](OC(=O)[C@H](O)[C@@H](NC(=O)c4ccccc4)c4ccccc4)C(C)=C1C3(C)C)[C@]1(OC(C)=O)CO[C@@H]1C[C@@H]2O` the inhibition (Tubulin (Homo sapiens) [5]) was “Active”.

`C/C(Nc1ccccc1)=C1/C(=O)N[C@@H](Cc2ccccc2)C1=O` was tested, and the Activity (HeLa) was “Active”, the EC50 (SH-SY5Y [2]) was 68 nM and the Activity (MDA-MB-231) was “inactive”. The Activity (MCF7) was “inactive”, the Activity (SH-SY5Y [1]) was 34.7% and the Activity (SH-SY5Y [3]) was “Active”. For the same molecule, the inhibition (Tubulin (Homo sapiens) [6]) was “inactive”, the inhibition (Tubulin (Homo sapiens) [7]) was “Dose-Dependent Effect” and the inhibition (Tubulin (Homo sapiens) [8]) was “inactive”. The Activity (SH-SY5Y [9]) was “Active”, the Activity (SH-SY5Y [10]) was “Active” and the Activity (SH-SY5Y [4]) was “inactive”.

For `C#CCOc1cccc(N/C(C)=C2\C(=O)NN(Cc3ccccc3)C2=O)c1`, the EC50 (SH-SY5Y [2]) was 102 nM, the Activity (SH-SY5Y [3]) was “Active” and the inhibition (Tubulin (Homo sapiens) [6]) was “inactive”. The inhibition (Tubulin (Homo sapiens) [11]) was “Active”, the inhibition (Tubulin (Homo sapiens) [8]) was “inactive” and the Activity (SH-SY5Y [12]) was “Active”. For the same molecule, the Activity (SH-SY5Y [13]) was “Active”.
